What was measured:
[1] = system: blood pressure lowering and heart frequency increasing effects induced by isoproterenol; test: Isoproterenol-induced blood pressure lowering and heart frequency increase in cats; assay type: in vivo; details: LD50/10 i.v., 2 mg/kg i.v. isoproterenol
[2] = system: blood pressure and heart frequency; assay type: in vivo, cats
[3] = system: rabbit ilium; test: Spasmolytic effect on rabbit ilium
[4] = system: rat intestine; test: Spasms induced in rat intestine by acetylcholine or barium chloride
[5] = Acute toxicity in mice i.v.; details: mouse, in vivo, iv
[6] = system: blood pressure; test: Blood pressure, heart frequency and breathing in rabbits; assay type: in vivo; details: i.v. or enterally
Source text: (§1) Propanolamines of formula (Ib) [drawing 4] constitute another special subgroup of compounds of formula (I). In formula (Ib) R1 and R2 are as defined above. These compounds have also very advantageous pharmaceutical effects, which, however, differ from the effects of the butanolamines of formula (Ia).

[7] = system: rat Langendorff-heart; test: Coronary flow in rat Langendorff-heart; details: 10 μg/0,1 ml dose
Source text: as §1

[8] = system: arrhythmia induced by 30 μg/kg i.v. aconitin; test: Aconitin-induced arrhythmia in rats; assay type: in vivo; details: LD50/10 i.v.
Source text: (§2) In formula (Ia) R1 and R2 are as defined above, preferably R1 is branched alkyl or cycloalkyl, and R2 is hydrogen.

[9] = system: trachea preparation; test: Antiisoproterenol effect in trachea preparation
Source text: (§3) The antiisoproterenol effect of the compound is moderated.

[10] = system: guinea pig isolated left auricle; test: Effective refractory period in guinea pig isolated left auricle (electrophysiology); details: 5×10^-5 M
Source text: as §3

[11] = system: ventricular fibrillation threshold; test: Ventricular fibrillation threshold in open-chested anesthetized cats; assay type: in vivo
Source text: as §2

[12] = system: ventricular tadhycardia provoked by Strophantin; test: Strophantin-provoked ventricular tachycardia in anesthetized cats; assay type: in vivo
Source text: as §2

[13] = system: guinea pig isolated left auricle; test: Antiisoproterenol effect in guinea pig isolated left auricle
Source text: as §3

[14] = system: β-receptor; test: Antiisoproterenol effect, overall and concentration curves
Source text: as §3

[15] = system: increase of the T-wave in the electrocardiogram induced by ornithine-vasopressin; test: Ornithine-vasopressin-induced T-wave increase in ECG of rabbits anesthetized with urethane (antianginic); assay type: in vivo; details: LD50/40
Source text: From the pharmaceutical point of view the strong antianginic effect of our compounds of formula (Ia) is very important.

## CC1CCc2ccc(OCC(O)CNC3CCCCC3)cc2O1 (centres unmarked) [1-(2-methyl-3,4-dihydro-2H-1-benzopyrane-7-yloxy)-3-cyclohexylamino-2-propanol]
[1]
  inhibition of blood pressure lowering and heart frequency increasing effects induced by isoproterenol: inhibits strongly

## Cc1cc(=O)c2ccc(OCC(O)CNC(C)(C)C)cc2o1 (centres unmarked) [1-(2-methyl-4H-1-benzopyrane-4-one-7-yloxy)-3-(1,1-dimethylethylamino)-2-propanol]
[2]; LD50/20 i.v., anesthetized cats
  reduction of blood pressure: 50.2%
[2]; in vivo, iv
  effect on heart frequency: without significantly affecting their heart frequency
[3]
  spasmolytic effect: spasmolytic agent with parasympatholytic and direct striped muscle effects
[4]; acetylcholine
  effect against spasms induced by acetylcholine: effective
[4]; barium chloride
  effect against spasms induced by barium chloride: effective

## CC(C)NCC(O)COc1ccc2c(c1)OCCC2 (centres unmarked) [1-(3,4-dihydro-2H-1-benzopyrane-7-yloxy)-3-(1-methylethylamino)-2-propanol]
[2]; LD50/320 i.v., anesthetized cats
  blood pressure lowering: 33,5%
[5]
  LD50: 66 mg/kg

## CC(C)NCC(O)COc1ccc2c(c1)OCC(c1ccccc1)C2 (centres unmarked) [1-(3-phenyl-3,4-dihydro-2H-1-benzopyrane-7-yloxy)-3-(1-methylethylamino)-2-propanol]
[6]
  blood pressure lowering: significant and long-lasting blood pressure lowering
  effect on heart frequency, volume of breathing and frequency of breathing: without affecting the heart frequency, the volume of breathing and the frequency of breathing
[7]
  coronary flow: increases the coronary flow

## OC(CCNC1CCCCC1)COc1ccc2c(c1)OC(c1ccccc1)CC2 (centres unmarked) [4-cyclohexylamino-1-(2-phenyl-3,4-dihydro-2H-1-benzopyrane-7-yloxy)-2-butanol]
[8]
  effect on arrhythmia induced by aconitin: revokes arrhythmia
[9]
  concentration with antiisoproterenol effect in trachea preparation: 10^-4 M
[10]; versus Practolol
  effect on effective refractory period compared with Practolol: stronger by nearly an order of magnitude than that of Practolol
[10]; versus Propranolol
  effect on effective refractory period compared with Propranolol: almost as strong as the effect of Propranolol
[11]
  ventricular fibrillation threshold: remarkably increases
[11]; versus Propranolol
  ventricular fibrillation threshold, effect compared with Propranolol: stronger effect that that of Propranolol
[12]
  time for which ventricular tachycardia provoked by Strophantin is suspended: 19 min
[13]
  concentration with antiisoproterenol effect in left auricle: 50 µM
[14]; overall
  antiisoproterenol effect: moderated
[14]; runs of the concentration curves
  character of the antiisoproterenol effect: not of a competitive character

## OC(CCNC1CCCCC1)COc1ccc2c(c1)OCC(c1ccccc1)C2 (centres unmarked) [4-cyclohexylamino-1-(3-phenyl-3,4-dihydro-2H-1-benzopyrane-7-yloxy)-2-butanol]
[15]; rabbits anesthetized with urethane, 0.5 E/kg ornithine-vasopressin
  elimination of the increase of the T-wave in the electrocardiogram: eliminates practically completely
[15]; versus Propranolol
  effect on T-wave increase compared with Propranolol: significantly surpasses the effect of Propranolol
